According to patent publication US20040116656A1, “Memory-enhancing peptides and the use thereof” (priority 2000, published 2004):

Tested on: learning and memory process of mouse (memory and learning impediment induced by scopolamine)
Assay: Step-down platform electrical-shock avoidance test of learning and memory (RT, EN) in scopolamine-treated mice
Assay type: in vivo
Conditions: for Memory Results EN / Learning Results EN / Memory Results RT / Learning Results RT: scopolamine 1 mg/kg; for Memory Results EN / Memory Results RT: memory test 24 hrs later; for Learning Results EN / Learning Results RT: training trial
Method: The pharmacological tests of memory-enhancing peptide in this invention have been performed as following: the animals have been divided into three groups: drug administration group, control group and model group, with each group administrated with memory-enhancing peptide, saline and scopolamine respectively. In the test, the groups except control group were injected with scopolamine after the administration of medicine about 50 min., 10 min. later, the training began. First, the animals will be put into reaction box for 3 min. before each trails to familiarize them with the environment. Then, the reaction box are charged with 36V alternating current. When the animal subjects to electrical shock, it will jump up to the central platform to avoid harmful stimulation as a normal response. Most of animals may be return to the copper curdles twice or even more times, but they will jump back to the platform swiftly as the results of electrical shock. Each test trail will be performed for 5 min. and two following indices will be used to represent the learning results: (I) the number of total error (EN) during the whole training period; (2) the reaction time (RT) for the first returning to the copper curdle in the trail. The trails will repeat again 24 hrs later as memory test.

Molecule | Memory Results EN (Huperzine A 100 μg/kg) | Learning Results EN (Huperzine A 100 μg/kg, number of total errors) | Effect on memory and learning impediment induced by scopolamine, compared with model group (0.5 μg and 1 μg/kg, longer incubation period and lesser error numbers, P<0.01 vs model group) | Effect on scopolamine-induced memory and learning impediment compared with Huperzine A (0.5 μg/kg and 1 μg/kg versus Huperzine A 100 μg/kg) | Memory Results EN (drug dosage 0.25 μg/kg) | Memory Results RT (drug dosage 0.25 μg/kg) | Learning Results EN (drug dosage 0.25 μg/kg) | Learning Results RT (drug dosage 0.25 μg/kg) | Memory Results EN (drug dosage 0.5 μg/kg) | Memory Results RT (drug dosage 0.5 μg/kg) | Learning Results EN (drug dosage 0.5 μg/kg) | Learning Results RT (drug dosage 0.5 μg/kg) | Memory Results EN (drug dosage 1 μg/kg) | Memory Results RT (drug dosage 1 μg/kg) | Learning Results EN (drug dosage 1 μg/kg) | Learning Results RT (drug dosage 1 μg/kg) | Overall effect on memory and learning impediment induced by scopolamine (results of Table 1) (summary statement, no dose given)
C/C=C1\[C@H]2C=C(C)C[C@]1(N)c1ccc(=O)[nH]c1C2 [Huperzine A, reference compound] | 0.9 | 1.3 | – | – | – | – | – | – | – | – | – | – | – | – | – | – | –
PyroGlu—Asn—Cys(S—Bu^t)—Pro—Arg [MEP-531] | – | – | obviously improve the memory and learning impediment induced by scopolamine | better effects than Huperzine A | 0.9 | 197.6 s | 0.3 | 78.8 s | 0.5 | 245.5 s | 0.2 | 241.6 s | 0.3 | 282.8 s | 0.3 | 267.6 s | remarkably ameliorate the memory and learning impediment induced by scopolamine
